How the values were obtained:
[1] = target: human BCL6 BTB domain (Trx-6xHis-BCL6) (Homo sapiens (Human), UniProt P41182); assay: HTRF in vitro assay (BCL6 BTB domain / BCOR-AF633 peptide); type: binding; conditions: for IC50: read-out: HTRF pIC50 (converted)
Description: The % inhibition at each concentration was calculated by normalising FRET ratio to the appropriate high (DMSO with all reagents) and low (DMSO without BCL6) controls.

SU-DHL-4 cells = assay: 14-day cell proliferation assay (CellTiter Glo); type: cell-based; conditions: Homo sapiens, SU-DHL4 cells, 14 days
Description: The volume of medium containing 2000 cells in the control well was calculated and this volume of cells was transferred from every well of the assay plates to the corresponding well of the fresh plates containing compound. After 14 days, CellTiter Glo reagent (Promega) was added to the medium in each well of the assay plate at a ratio of 1:2, mixed on a plate shaker, then incubated at room temperature for 10 minutes. Luminescence was measured using an Envision plate reader (Perkin Elmer) and the relative luminescence at each compound concentration, compared to DMSO alone, was calculated. IC50 were determined using a 4-parameter curve fit in Dotmatics (Bishops Stortford, UK).

[2] = target: BCL6-NCOR2(SMRT) corepressor protein-protein interaction (Homo sapiens (Human), UniProt P41182); assay: NanoBRET cell assay in transfected HEK293T cells; type: cell-based; conditions: further generated data (Table 2b); HEK293T cells, 6 hr; read-out: NanoBRET cell pIC50 (converted)
Description: A cellular nano-Bioluminescence Resonance Energy Transfer (nanoBRET) assay (Promega NanoBRET Nano-Glo Detection System, catalogue number N1662) was used to detect inhibition of the BCL6-NCOR2(SMRT) corepressor protein-protein interaction. DNA encoding full length BCL6 and NCOR2 were inserted into pFC32K.NanoLuc and pFC14K.HaloTag vectors (Promega) to produce C-terminal tagged fusion proteins BCL6-nanoLuc and NCOR2-HaloTag, respectively. […] Frozen transfected HEK293T cells were thawed, centrifuged and freezing medium was replaced by phenol red-free OptiMEM+4% FBS (Life Technology). […] Cells were incubated for 6 hr at 37° C./5% CO2 then NanoBRET furimazine substrate (Promega) was added to give a final concentration of 10 μM. After a short centrifugation the plates were read on an Envision (Perkin Elmer) plate reader equipped with a LUM/D600 Dual mirror, Lum 450/40 nm bandpass and D605 nm longpass filters, with a 0.2 sec reading to determine the BRET ratio. The % inhibition at each test concentration was calculated by normalising the BRET ratio to the appropriate high and low controls.

[3] = further generated data (Table 1b), 1 nM Trx-6xHis-BCL6, 0.5 nM anti-6xHis-Terbium cryptate
[4] = initially generated data (Table 1a), 10 nM Trx-6xHis-BCL6, 1 nM anti-6xHis-Terbium cryptate

C[C@@H]1CN(c2ncc(Cl)c(Nc3ccc4c(c3)c(NC(C)(C)c3ncccn3)nc(=O)n4C)n2)C[C@H](C)C1(F)F [Example 25a, 6-((5-chloro-2-((3R,5S)-4,4-difluoro-3,5-dimethylpiperidin-1-yl)pyrimidin-4-yl)amino)-1-methyl-4-((2-(pyrimidin-2-yl)propan-2-yl)amino)quinazolin-2(1H)-one]
HTRF pIC50 [1, 3]: 6.73
GI50 (SU-DHL-4 cells): 110 nM

CC(Nc1cc(=O)n(C)c2ccc(Nc3ccnc(Cl)c3C#N)cc12)c1ncc(C2CC2)cn1 (stereo not drawn) [Example 10e, 2-chloro-4-((4-((1-(5-cyclopropylpyrimidin-2-yl)ethyl)amino)-1-methyl-2-oxo-1,2-dihydroquinolin-6-yl)amino)nicotinonitrile]
GI50 (SU-DHL-4 cells): 1720 nM

CC(Nc1nc(=O)n(C)c2ccc(Nc3nc(N4C[C@@H](C)C(F)(F)[C@@H](C)C4)ncc3Cl)cc12)c1ncccn1 (mixture of isomers) [Example 12h, rac-6-((5-chloro-2-((3R,5S)-4,4-difluoro-3,5-dimethylpiperidin-1-yl)pyrimidin-4-yl)amino)-1-methyl-4-((1-(pyrimidin-2-yl)ethyl)amino)quinazolin-2(1H)-one]
IC50 [1, 3]: 251 nM
GI50 (SU-DHL-4 cells): 340 nM

C[C@@H](Nc1cc(=O)n(C)c2ccc(Nc3cc(C(=O)N4CCC4)nc(Cl)c3C#N)cc12)C1CC1 [Example 8c, (R)-6-(azetidine-1-carbonyl)-2-chloro-4-((4-((1-cyclopropylethyl)amino)-1-methyl-2-oxo-1,2-dihydroquinolin-6-yl)amino)nicotinonitrile]
HTRF pIC50 [1, 3]: 7.02
IC50 [2]: 501 nM

CC(Nc1cc(=O)n(C)c2ccc(Nc3cc(N4CCC(C(=O)N(C)C)CC4)ncc3Cl)cc12)c1ncccn1 (stereo not drawn) [Example 15g, 1-(5-chloro-4-((1-methyl-2-oxo-4-((1-(pyrimidin-2-yl)ethyl)amino)-1,2-dihydroquinolin-6-yl)amino)pyridin-2-y1)-N,N-dimethylpiperidine-4-carboxamide]
HTRF pIC50 [1, 3]: 6.47
IC50 [2]: 7240 nM

CC(Nc1cc(=O)n(C)c2ccc(Nc3nc(N4CC(C)(C#N)C4)ncc3Cl)cc12)c1ncccn1 (stereo not drawn) [Example 17j, 1-(5-chloro-4-((1-methyl-2-oxo-4-((11-(pyrimidin-2-yl)ethyl)amino)-1,2-dihydroquinoline-6-yl)amino)pyrimidin-2-yl)-3-methylazetidine-3-carbonitrile]
HTRF pIC50 [1, 3]: 6.18
IC50 [2]: 4900 nM

CC(Nc1cc(=O)n(CCO)c2ccc(Nc3ccnc(Cl)c3C#N)cc12)c1ncccn1 (stereo not drawn) [Example 11j, 2-chloro-4-((1-(2-hydroxyethyl)-2-oxo-4-((1-(pyrimidin-2-yl)ethyl)amino)-1,2-dihydroquinolin-6-yl)amino)nicotinonitrile]
HTRF pIC50 [1, 3]: 6.83
IC50 [2]: 11000 nM

COCC(C)(C)Nc1cc(=O)n(C)c2ccc(Nc3nc(N4CCC(C(=O)N(C)C)CC4)ncc3Cl)cc12 [Example 16d, 1-(5-chloro-4-((4-((1-methoxy-2-methylpropan-2-yl)amino)-1-methyl-2-oxo-1,2-dihydroquinolin-6-yl)amino)pyrimidin-2-yl)-N,N-dimethylpiperidine-4-carboxamide]
HTRF pIC50 [1, 3]: 6.25
IC50 [2]: 9120 nM

Cn1c(=O)cc(N[C@H](CO)C2CC2)c2cc(Nc3ccnc(Cl)c3C#N)ccc21 [Example 11a, (S)-2-chloro-4-((4-((1-cyclopropyl-2-hydroxyethyl)amino)-1-methyl-2-oxo-1,2-dihydroquinolin-6-yl)amino)nicotinonitrile]
HTRF pIC50 [1, 3]: 6.78
IC50 [2]: 3390 nM

COc1ncc(Cl)c(Nc2ccc3c(c2)c(N[C@H](C)C2CC2)cc(=O)n3C)n1 [Example 11e]
HTRF pIC50 [1, 3]: 6.20
IC50 [2]: 3470 nM

C[C@@H](Nc1cc(=O)n(C)c2ccc(Nc3cc(-n4cc(CCO)cn4)ncc3Cl)cc12)C1CC1 [Example 15f, (R)-6-((5-chloro-2-(4-(2-hydroxyethyl)-1H-pyrazol-1-yl)pyridin-4-yl)amino)-4-((1-cyclopropylethyl)amino)-1-methylquinolin-2(1H)-one]
HTRF pIC50 [1, 3]: 6.58
IC50 [2]: 2290 nM

CC(Nc1nc(=O)n(C)c2ccc(Nc3ccnc(Cl)c3Cl)cc12)c1ncccn1 (stereo not drawn) [Example 6c, 6-((2,3-dichloropyridin-4-yl)amino)-1-methyl-4-((1-(pyrimidin-2-yl)ethyl)amino)quinazolin-2(1H)-one]
HTRF pIC50 [1, 3]: 6.57
IC50 [2]: 5500 nM

CC(Nc1cc(=O)n(C)c2ccc(Nc3ccnc(Cl)c3C#N)cc12)c1ncc(Br)cn1 (stereo not drawn) [Example 10j, 4-((4-((1-(5-bromopyrimidin-2-yl)ethyl)amino)-1-methyl-2-oxo-1,2-dihydroquinolin-6-yl)amino)-2-chloronicotinonitrile]
HTRF pIC50 [1, 3]: 6.92
IC50 [2]: 1230 nM

CC(Nc1cc(=O)n(C)c2ccc(Nc3ccnc(Cl)c3C#N)cc12)c1ncc(C2CCC2)cn1 (stereo not drawn) [Example 24f, 2-chloro-4-((4-((1-(5-cyclobutylpyrimidin-2-yl)ethyl)amino)-1-methyl-2-oxo-1,2-dihydroquinolin-6-yl)amino)nicotinonitrile]
HTRF pIC50 [1, 3]: 7.26
IC50 [2]: 1620 nM

CC(Nc1cc(=O)n(C)c2ccc(Nc3nc(N4CC5(CCOCC5)C4)ncc3Cl)cc12)c1ncccn1 (stereo not drawn) [Example 17h, 6-((5-chloro-2-(7-oxa-2-azaspiro[3.5]nonan-2-yl)pyrimidin-4-yl)amino)-1-methyl-4((1-(pyrimidin-2-yl)ethyl)amino)quinolin-2(1H)-one:formic acid (1:1)]
HTRF pIC50 [1, 3]: 6.20
IC50 [2]: 4170 nM

Cn1c(=O)cc(NC(C)(C)c2ncc(C3CC3)cn2)c2cc(Nc3ccnc(Cl)c3Cl)ccc21 [Example 6j, 4-((2-(5-cyclopropylpyrimidin-2-yl)propan-2-yl)amino)-6-((2,3-dichloropyridin-4-yl)amino)-1-methylquinolin-2(1H)-one]
HTRF pIC50 [1, 3]: 6.84
IC50 [2]: 1200 nM

C[C@@H](Nc1cc(=O)n(C)c2ccc(Nc3nc(N4CCC(C(=O)N(C)C)CC4)ncc3Cl)cc12)C1CC1 [Example 12b, (R)-1-(5-chloro-4-((4-((1-cyclopropylethyl)amino)-1-methyl-2-oxo-1,2-dihydroquinolin-6-yl)amino)pyrimidin-2-y1)-N,N-dimethylpiperidine-4-carboxamide]
IC50 [1, 3]: 302 nM
IC50 [2]: 1290 nM

Cn1c(=O)cc(NC(c2ncccn2)C2CC2)c2cc(Nc3ccnc(Cl)c3C#N)ccc21 (stereo not drawn) [Example 10p, 2-chloro-4-((4-((cyclopropyl(pyrimidin-2-yl)methyl)amino)-1-methyl-2-oxo-1,2-dihydroquinolin-6-yl)amino)nicotinonitrile]
HTRF pIC50 [1, 3]: 6.44
IC50 [2]: 2340 nM

CC(Nc1cc(=O)n(C)c2ccc(Nc3nc(N4CCC(CC(=O)N(C)C)CC4)ncc3Cl)cc12)c1ncccn1 (stereo not drawn) [Example 17e, 2-(1-(5-chloro-4-((1-methyl-2-oxo-4-((1-(pyrimidin-2-yl)ethyl)amino)-1,2-dihydroquinolin-6-yl)amino)pyrimidin-2-yl)piperidin-4-yl)-N,N-dimethylacetamide:formic acid (1:1)]
HTRF pIC50 [1, 3]: 6.34
IC50 [2]: 3470 nM

Cn1c(=O)cc(NC(C)(C)c2ncccn2)c2cc(Nc3ccnc(Cl)c3C#N)cnc21 [Example 1x, 2-chloro-4-[[8-methyl-5-[(1-methyl-1-pyrimidin-2-yl-ethyl)amino]-7-oxo-1,8-naphthyridin-3-yl]amino]pyridine-3-carbonitrile]
HTRF pIC50 [1, 3]: 7.20
HTRF pIC50 [1, 4]: 6.68
IC50 [2]: 1580 nM

Cn1c(=O)cc(NC(C)(C)c2ncccn2)c2cc(Nc3nc(-n4ccc(C(F)(F)F)n4)ncc3Cl)ccc21 [Example 14d, 6-((5-chloro-2-(3-(trifluoromethyl)-1H-pyrazol-1-yl)pyrimidin-4-yl)amino)-1-methyl-4((2-(pyrimidin-2-yl)propan-2-yl)amino)quinolin-2(1H)-one]
HTRF pIC50 [1, 3]: 6.44
IC50 [2]: 2040 nM

CC(Nc1cc(=O)n(C)c2ccc(Nc3ccnc(Cl)c3Cl)cc12)c1ncccn1 (stereo not drawn) [Example 6a, 6-[(2,3-Dichloro-4-pyridyl)amino]-1-methyl-4-(1-pyrimidin-2-ylethylamino)quinolin-2-one]
HTRF pIC50 [1, 3]: 6.56
HTRF pIC50 [1, 4]: 6.36
IC50 [2]: 2820 nM

CN(C)C(=O)C1CCN(c2ncc(Cl)c(Nc3ccc4c(c3)c(NC(C)(C)c3ncccn3)cc(=O)n4C)n2)CC1 [Example 16a, 1-(5-chloro-4-((1-methyl-2-oxo-4-((2-(pyrimidin-2-yl)propan-2-yl)amino)-1,2-dihydroquinolin-6-yl)amino)pyrimidin-2-yl)-N,N-dimethylpiperidine-4-carboxamide]
HTRF pIC50 [1, 3]: 6.58
IC50 [2]: 2630 nM

Cn1c(=O)cc(NC(C)(C)c2ncccn2)c2cc(Nc3cc(C(=O)N4CCC4)nc(Cl)c3C#N)ccc21 [Example 8a, 6-(Azetidine-1-carbonyl)-2-chloro-4-((1-methyl-2-oxo-4-((2-(pyrimidin-2-yl)propan-2-yl)amino)-1,2-dihydroquinolin-6-yl)amino)nicotinonitrile]
HTRF pIC50 [1, 3]: 7.78
IC50 [2]: 550 nM

CC(Nc1cc(=O)n(CC2CCC2)c2ccc(Nc3ccnc(Cl)c3C#N)cc12)c1ncccn1 (stereo not drawn) [Example 11i, 2-chloro-4((1-(cyclobutylmethyl)-2-oxo-4-((1-(pyrimidin-2-yl)ethyl)amino)-1,2-dihydroquinolin-6-yl)amino)nicotinonitrile]
HTRF pIC50 [1, 3]: 6.64
IC50 [2]: 2090 nM

— patent US11161839B2, “2-quinolone derived inhibitors of BCL6” (Cancer Research Technology Limited, priority 2017, dated 2021)
